# Results as given in a melting point compilation (Tetko et al.; mined from patent text by program, amines drawn as free bases though some values may be those of a salt).
row,SMILES,melting point [°C]
1,CCc1cc(-c2[nH]c3ccccc3c2CC)cc(CC)c1O,96.3 to 96.7
2,Oc1ccc2c(c1)NCC2,115 to 120
3,COc1ccc(C2(C(=O)O)CCC(=O)CC2)cc1,154 to 156
4,CCOC(=O)N1CCN(C2c3ccccc3C=Cc3ccccc32)CC1,159 to 160
5,CCOc1cc2c(C)c(CCN3CCC(c4ccccc4)CC3)c(=O)oc2cc1OC,195 to 196
6,CC1(C)CCCN(C(=O)CN(C(=O)CNC(=O)Nc2cccc(CCO)c2)c2ccccc2)C1,175
7,COc1cc2cc(N(C)C)sc2cc1OCc1ccccc1,140 to 142
8,N#CC(C(N)=O)c1ccccc1[N+](=O)[O-] (stereo unspecified),172 to 174
9,COC(=O)c1nc(CN(C)C)n(-c2ccc(Cl)cc2C(=O)c2ccccc2)n1,118 to 121
10,CC(C)OC(=O)C(C(=O)c1ccc2c(c1)OCO2)=C1SC=CS1,136 to 138
11,COc1cc(COc2ncccc2C#N)ccc1OCc1nc(-c2ccccc2)oc1C,117 to 118
12,O=C(OCC1=CCN(Cc2c[nH]c3cccnc23)CC1)c1ccccc1,126
13,O=C1N(Cc2ccc3nsnc3c2)c2ccccc2C12COc1cc3c(cc12)CCO3 (stereo unspecified),162 to 164
14,COc1ccc(CN2C(=O)C(O)(c3ccncc3Cl)c3cc(Cl)ccc32)c(OC)c1 (stereo unspecified),215
15,C[C@@H](O)[C@H]1C(=O)N([Si](C)(C)C(C)(C)C)[C@@H]1[C@@H]1COC(C)(C)O1,80 to 90
16,N=C(N)NC(=O)OCc1ccccc1,120 to 122
17,CC(C)c1nn(-c2ccc(C(F)(F)F)cn2)cc1CCCOc1nn(C)cc1CCC(=O)O,124 to 125
18,COC(=O)/C=C/c1cccc(OCCCCCOC(C)=O)c1,65 to 67
19,COc1cc(-c2csc(C#N)n2)cc(Cl)c1OC,147 to 149
20,CSc1nccc(C)c1NC(=O)CCCCCCCCSc1nc2ccccc2o1,91 to 92
21,C[Si](C)(C)c1cc(C(F)(F)F)ccc1OC1CCCCO1 (stereo unspecified),43 to 46
22,O=S(=O)(O)COc1ccc(Cl)cc1Br,> 315
23,O=C(CCc1ccccc1)N[C@H](Cc1ccc(C(F)(F)F)cc1)[C@@H](O)c1cccc(F)c1 (racemic),151 to 152
24,CCOC(=O)c1cnc2c(N(C)Cc3ccccc3)cc(CN3CCOCC3)cc2c1O,151 to 153
25,CC(C)(C)OC(=O)N1CCC(c2ccc3[nH]c(-c4ccc(S(C)(=O)=O)cc4F)nc3c2)CC1,208 to 212
26,O=C(O)c1cc(F)c(F)cc1Nc1ccc(F)cc1F,215 to 216

row,SMILES,melting point [°C]
1,N=C(Cc1ccccc1)N1CC2C(=O)CCC(c3ccccc3)(c3ccccc3)C2C1 (stereo unspecified),195
2,O=[N+]([O-])c1ccc(F)c(CO)c1,50 to 53
3,Cc1cc2c(C)nc(N)nc2o1,263 to 265
4,OCCc1nccn1CCCCc1ccc(OCc2coc(/C=C/c3ccc(F)cc3)n2)cc1,130 to 132
5,CN(CCCc1c(N)nc(N)[nH]c1=O)c1ccc(C(=O)N[C@@H](CCC(=O)O)C(=O)O)cc1,190 to 200
6,CN1CCCC(C(=O)OC2c3ccccc3C(=O)N2c2ccc3ccc(Cl)nc3n2)C1 (stereo unspecified),211
7,CCCn1c(=O)c2c(nc(/C=C/c3ccc4c(c3)OCCO4)n2C)n(CCC)c1=O,182
8,CC(C)c1cccc(C(C)C)c1NC(=O)CN1CCN(CCSc2nc3cccc(C(C)(C)C)c3o2)CC1,138 to 140
9,O=C(NC1CCN(C2CCCCC2)C1)c1cccc(Br)c1 (stereo unspecified),128 to 130
10,Cc1noc(NC(=O)N2CCN(c3nccc(-c4cc(F)cc(F)c4)n3)CC2)c1C,241 to 242
11,CCOC(=O)C1=C(C=O)NC(CF)=C(C(=O)OCC)C1c1cccc([N+](=O)[O-])c1 (stereo unspecified),88 to 90
12,Cc1nnc(NCCCN2CCN(C)CC2)c2cc3ccccn3c12,60
13,O=c1c2ccccc2nc(-c2sc(Nc3ccccc3)nc2-c2ccccc2)n1-c1ccc(Cl)cc1,218 to 222
14,CC(C)(C)C(=O)OCc1nc2cc3c(cc2c(=O)[nH]1)CCC3,185 to 190
15,CN1Cc2c(-c3nc(C4CC4)no3)ncn2-c2ccccc2C1=O,202 to 203
16,CCCCCCCCCCCCCCOC(=O)c1cc(N)cc(C(=O)OCCCCCCCCCCCCCC)c1,74 to 75
17,CCc1nn2ccccc2c1N(CCCF)C(=O)COC,59.9 to 63.9
18,C=CCNc1nc(NCC=C)c2cc(Cl)ccc2n1,78 to 79
19,CC1=C(C(=O)OC(C)(C)C)C(c2cccc(Cl)c2)C(C(=O)OC(C)(C)C)=C(C)N1,190
20,CC1(C)COC(=O)N1Br,118 to 120
21,CCCOc1ccc(S(=O)(=O)N2CCN(CCOC(C)=O)CC2)cc1-c1nc2c(CCCF)cn(CC)c2c(=O)[nH]1,134 to 135
22,Cc1ccc(S(=O)(=O)NC(=O)C2C(=O)CC3(CCCCC3)CC2=O)cc1,150 to 152
23,CCOC(=O)CCNC(=O)NC1CCN(c2ccc(C=NNOC(=O)OCC)cc2)C1=O (stereo unspecified),198 to 201
24,CC(C)NC(C(N)=S)c1ccccc1 (stereo unspecified),98.6
25,CCCCOc1ccc(-c2nc3n(c2-c2ccc(OCCCC)cc2)CCS3)cc1,149 to 151
26,COc1ccc(Cl)cc1C1OC(=O)N(C(C)=O)C1=O (stereo unspecified),161 to 164

row,SMILES,melting point [°C]
1,CCCN1C(=O)N2CCN=C2c2[nH]c(C3CCCC3)nc21,215 to 216
2,CCc1nn(C2CCCC2)c2cc(C(=O)Nc3ccc(C(=O)OC)cc3)ccc12,129 to 132
3,C#CCc1c(-c2ccccc2)nc(C)n(C)c1=O,142 to 144
4,c1ccc2c(c1)NCc1cccn1-2,108 to 110
5,CC(=O)NCCC(=O)Nc1cccc(-c2cc(-c3ccc(Cl)cc3O)nc(NC(=O)c3cccs3)c2C#N)c1,209 to 210
6,C[C@@H]1CN2C(=O)c3ccccc3[C@@](O)(c3ccc(F)cc3)C2=N1,229 to 232
7,O=C(Cl)c1cc(OCc2ccccc2)cc(OCc2ccccc2)c1,73 to 74
8,COCCCn1c2ccc(O)cc2c2c3c(c(-c4ccccc4Cl)cc21)C(=O)NC3=O,260 to 262
9,Cc1cc(Cl)c2c(c1)C=C(C(=O)O)C(C(F)(F)F)O2 (stereo unspecified),226 to 227
10,CC1(C)Oc2ccc(C#N)cc2[C@@H](NC2=CC(=O)OC2)[C@@H]1O (relative stereo),182
11,CN(Cc1ccc(NC(=O)C2=Cc3cc(-c4ccc(C(F)(F)F)cc4)ccc3S(=O)(=O)CC2)cc1)C1CCOCC1,270 to 272
12,CC(=O)c1ccc(NCc2c(O)ccc3c2CCCO3)cc1,213 to 215
13,O=C(O)c1cc(-c2ccccc2)c(=O)n2c1-c1sccc1C2,> 300
14,Nc1cccc2c1sc1c(Nc3cccc(Br)c3)ncnc12,216 to 217
15,Cc1cccc(COn2nnc3ccc(Cn4ccnc4)cc32)c1,120
16,Cc1ccccc1C(=O)c1ccc(CC(=O)O)n1C,133 to 135
17,CCCN(C)c1nn(C)c(=O)c2c1ccn2-c1c(C)cc(C)cc1C,105 to 108
18,Cc1ccc(OCC(O)CNC(C)C)nc1 (stereo unspecified),62 to 67
19,C[C@]1(COc2ccc(N3CCC(CCOCc4ccc(OC(F)(F)F)cc4)CC3)cc2)Cn2cc([N+](=O)[O-])nc2O1,205 to 207
20,CCOC(=O)CC(=O)Nc1nc(C)cs1,138 to 141
21,CC(=O)SCCC(=O)N1c2ccc(Cl)cc2CCC1C(=O)O (stereo unspecified),134 to 136
22,CCCc1nnc(/C=C/c2cn(-c3ccccc3)nc2OCc2ccc(OCc3nc(-c4ccco4)oc3C)c(OC)c2)o1,165 to 166
23,C#CCOc1cc(C(=O)O)cc(N)c1-c1ccccc1,172 to 173
24,CN1CC2=C(n3cnc(C#CC(C)(C)O)c3C1)S(=O)C=C2 (stereo unspecified),180 to 181
25,CC(C)(C)NCC(O)COc1ccccc1-c1csnn1 (stereo unspecified),99 to 100
26,O=c1[nH][nH]c(=O)c2c(O)c3ccc(I)cc3nc12,243 to 244

row,SMILES,melting point [°C]
1,COc1cn(-c2cccc(Br)c2F)nc(-c2ccnn2-c2ccccc2)c1=O,186 to 191
2,O=C(N[C@H]1C[C@H](C(=O)O)Nc2cc(Cl)cc(Cl)c21)C(c1ccccc1)c1ccccc1 (relative stereo),238
3,Brc1ccc2cc(N(c3ccccc3)c3ccccc3)ccc2c1,136 to 137
4,Cc1c(Br)c(C)c2c(OS(=O)(=O)C(F)(F)F)coc2c1C,54 to 55
5,Cc1c(C(=O)c2ccc(O)cc2)oc2ccc([N+](=O)[O-])cc12,235
6,CCOC(=O)C(=O)Nc1ccc(N(C)C)cc1O,259 to 260
7,CC(C)(C)c1cc(-c2nc(CC(=O)O)co2)cc(C(C)(C)C)c1O,166 to 168
8,CCc1c(OC)cc(/C=C(\SC)S(C)=O)cc1OC (stereo unspecified),82 to 83
9,CON(C)C(=O)c1cc(-n2c(Cl)nc(C(F)(F)F)cc2=O)c(F)cc1Cl,183
10,COc1c(N2CCC(N)C2)c(F)cc2c(=O)c(C(=O)O)cn(C3CC3)c12 (stereo unspecified),208 to 212
11,O=C1c2cccc([N+](=O)[O-])c2C(=O)N1c1ccc(O)cc1,202
12,CN(C)c1ccc2c(c1)CN(c1cccc(-c3cc(Nc4ccncn4)c(=O)n(C)c3)c1CO)C2=O,206 to 208
13,O=C(O)c1[nH]c2cc(Cl)cc(Cl)c2c1C=C1NC(=O)N(c2ccccc2)C1=O,> 250
14,Cc1cc(=O)n(C2CCCCC2)n1C,99 to 100
15,O=C(NCCO[N+](=O)[O-])Oc1ccccc1,61 to 62
16,CC(C)n1cnc2c(NCc3cc(O)ccc3O)nc(NC[C@@H](C)O)nc21,162 to 164
17,COc1cccc(-c2cc(Cl)cc3c2OC(C(F)(F)F)C(C(=O)O)=C3)c1 (stereo unspecified),173 to 177
18,Nc1c(F)c(F)cc2c1c(=O)c(C(=O)O)cn2C1CC1,> 300
19,Nc1ccn(C2C=CC(CO)O2)c(=O)n1 (stereo unspecified),167 to 169
20,Cc1ccc2c3c(ccc2n1)OCC(CN1CC=C(c2c[nH]c4c(F)cccc24)CC1)O3 (stereo unspecified),205 to 210
21,CCC(=O)N[C@H]1CC[C@H](CCN2CCN(c3nccc4ccoc34)CC2)CC1,188
22,Cc1cc(C(=O)Nc2ccccc2)c(C)o1,92 to 93
23,CCC(C)C1Sc2ccccc2NC1=O (stereo unspecified),99 to 100
